Measurements as given in article PMC9319270, “Combination of Six Individual Derivatives of the Pom-1 Antibiofilm Peptide Doubles Their Efficacy against Invasive and Multi-Resistant Clinical Isolates of the Pathogenic Yeast Candida albicans” (Pharmaceutics, 2022).
Read-outs that look alike come from different tables or passages of the source.

What was measured:
[1] = test system: invasive C. albicans clinical isolates; assay type: cell-based, Candida albicans; settings: 20 biofilm-forming isolates
Experimental: The antifungal effect of Pom-1A to Pom-1F on Candida spp. biofilm formation can be determined following the Clinical and Laboratory Standard Institute guidelines (M27-A3). For this, 2.5 × 10^3 yeast cells were incubated in 200 µL of RPMI-1640 medium supplemented with L-glutamine, fluconazole, amphotericin B, and Pom-1A to Pom-1F. Incubation was performed on flat-bottomed polystyrene microplates with 96 wells (Sarstedt AG & Co. KG, Nümbrecht, Germany) for 24 h at 37 °C without shaking. The subsequent treatment with crystal violet was originally developed by George O’Toole for bacteria and adapted to Candida biofilms. For this purpose, the planktonic phase was removed, and the wells were washed twice with 200 µL of demineralized water. The remaining biofilm cells were treated with 200 µL of 0.1% (w/v) crystal violet solution for 15 min. After removing the solution, they were washed again twice with 200 µL demineralized water, and the microtiter plates were dried for at least 24 h at 25 °C. The stain was dissolved with 200 µL of 30% acetic acid and transferred to a new plate after 15 min. The absorbance at 560 nm was measured using a Tecan Infinite F200 microplate reader (Tecan Group Ltd., Männedorf, Switzerland). The resulting data were evaluated against the untreated controls so that the efficacy of the agents could be determined.

[2] = test system: adenocarcinomic human alveolar basal epithelial cells A549; assay type: cell-based
Experimental: (§1) For the experiments, adenocarcinomic human alveolar basal epithelial cells A549 [69] and human dermal fibroblasts (HDFs) were used. Cultivation was performed in DMEM with FBS (10% (w/v), 15% (w/v)), MEM NEAAs (1% (w/v)), and penicillin–streptomycin (100 U*mL^−1, 1% (w/v)) at 37 °C in an incubator containing 5% CO2. A resazurin assay was used to detect the viability of the cells. Therefore, 2 × 10^4 cells per well of a 96-well plate were incubated in 200 µL DMEM with additives at 37 °C and 5% CO2. The medium was removed, and 100 µL of the medium and 100 µL of a peptide solution (2.5 µg/mL, 25 µg/mL) were added. After incubation for 24 h at 37 °C and 5% CO2, 20 µL of a resazurin solution (0.15 mg/mL) were added into each well, and the cells were incubated again for 24 h at 37 °C and 5% CO2. Fluorescence measurement (excitation wavelength—535 nm, emission wavelength—595 nm) of the resulting resorufin was then performed using a Tecan Infinite F200 microplate reader (Tecan Group Ltd., Männedorf, Switzerland).

[3] = test system: human dermal fibroblasts (HDFs); assay type: cell-based
Experimental: as §1

OC(Cn1cncn1)(Cn1cncn1)c1ccc(F)cc1F [fluconazole, Fluconazole]
number of resistant isolates (biofilm detectable, inhibition lower than 100%) ([1]; fluconazole 8 µg/mL (w/v)): four

Triton X-100
cell viability, A549 [2]: zero
cell viability, HDF [3]: zero

C[C@@H]1[C@H](O)[C@@H](C)/C=C/C=C/C=C/C=C/C=C/C=C/C=C/[C@H](O[C@@H]2O[C@H](C)[C@@H](O)[C@H](N)[C@@H]2O)C[C@@H]2O[C@](O)(C[C@@H](O)C[C@@H](O)[C@H](O)CC[C@@H](O)C[C@@H](O)CC(=O)O[C@H]1C)C[C@H](O)[C@H]2C(=O)O [amphotericin B]
number of resistant isolates (biofilm detectable, inhibition lower than 100%) ([1]; amphotericin B 2 µg/mL (w/v)): six
